Assay [1] addresses Gamma-aminobutyric acid receptor subunit alpha-6/beta-3/gamma-2 (Rattus norvegicus) (UniProt P18508+P30191+P63079). The experiment in a line: Modulation of rat alpha6beta3gamma2 GABA A receptor expressed in Xenopus oocytes assessed as desensitization of GABA current at -80 mV holding potential at more than 300 uM by two-electrode voltage-clamp assay relative to control. The class given is cell-based. The following applies: filed as modulator.

For assay [2], the target named is Gamma-aminobutyric acid receptor subunit alpha-6/beta-3/gamma-2 (Rattus norvegicus, UniProt P18508+P30191+P63079). The experiment in a line: Modulation of rat alpha6beta3gamma2 GABA A receptor expressed in Xenopus oocytes assessed as reduction in desensitization at -80 mV holding potential by two-electrode voltage-clamp assay. The class given is cell-based.
Gamma-aminobutyric acid receptor subunit alpha-6/beta-3/gamma-2, sequence (P18508 whole entry): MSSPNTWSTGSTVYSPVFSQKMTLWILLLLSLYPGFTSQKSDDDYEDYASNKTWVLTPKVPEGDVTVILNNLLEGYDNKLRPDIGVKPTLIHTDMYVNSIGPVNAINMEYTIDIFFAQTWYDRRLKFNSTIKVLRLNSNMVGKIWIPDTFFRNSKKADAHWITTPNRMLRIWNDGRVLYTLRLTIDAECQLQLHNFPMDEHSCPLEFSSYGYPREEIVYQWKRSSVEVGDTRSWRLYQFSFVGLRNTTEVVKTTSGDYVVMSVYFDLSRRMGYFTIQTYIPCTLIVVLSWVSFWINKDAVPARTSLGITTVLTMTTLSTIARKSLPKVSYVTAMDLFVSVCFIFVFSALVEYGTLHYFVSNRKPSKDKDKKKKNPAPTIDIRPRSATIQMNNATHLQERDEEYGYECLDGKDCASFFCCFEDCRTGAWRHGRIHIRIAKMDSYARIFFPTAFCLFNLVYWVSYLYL
Gamma-aminobutyric acid receptor subunit alpha-6/beta-3/gamma-2, sequence (P30191 whole entry): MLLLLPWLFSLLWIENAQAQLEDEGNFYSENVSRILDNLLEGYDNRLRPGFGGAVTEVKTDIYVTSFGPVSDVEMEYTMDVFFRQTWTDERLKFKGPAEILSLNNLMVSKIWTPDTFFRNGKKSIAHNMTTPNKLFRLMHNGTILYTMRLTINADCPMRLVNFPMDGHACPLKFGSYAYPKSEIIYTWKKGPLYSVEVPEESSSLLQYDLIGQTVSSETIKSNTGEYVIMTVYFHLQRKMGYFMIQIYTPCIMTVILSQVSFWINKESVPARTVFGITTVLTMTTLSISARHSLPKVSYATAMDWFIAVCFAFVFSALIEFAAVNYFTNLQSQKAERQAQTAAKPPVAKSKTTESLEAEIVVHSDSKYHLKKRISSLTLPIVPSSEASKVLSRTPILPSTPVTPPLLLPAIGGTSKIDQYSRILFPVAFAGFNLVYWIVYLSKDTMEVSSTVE
Gamma-aminobutyric acid receptor subunit alpha-6/beta-3/gamma-2, sequence (P63079 whole entry): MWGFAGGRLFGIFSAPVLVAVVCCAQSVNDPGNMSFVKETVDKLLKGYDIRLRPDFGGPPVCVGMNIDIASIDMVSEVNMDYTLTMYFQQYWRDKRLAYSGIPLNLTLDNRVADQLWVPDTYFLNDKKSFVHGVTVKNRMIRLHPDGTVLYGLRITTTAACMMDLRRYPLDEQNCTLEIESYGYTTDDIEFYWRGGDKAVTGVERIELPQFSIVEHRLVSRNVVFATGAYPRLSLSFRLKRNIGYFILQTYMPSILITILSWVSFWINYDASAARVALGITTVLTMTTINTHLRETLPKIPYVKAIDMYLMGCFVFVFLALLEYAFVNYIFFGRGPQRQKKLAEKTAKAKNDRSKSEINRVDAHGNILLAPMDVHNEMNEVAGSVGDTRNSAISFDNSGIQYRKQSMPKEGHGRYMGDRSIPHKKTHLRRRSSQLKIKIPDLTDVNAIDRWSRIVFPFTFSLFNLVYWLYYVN

SMILES strings stand for the structures.

Regarding `Cc1ccc(C(C)(C)CC#N)c(Cl)c1`, the Activity in assay [1] turned out to be 1360%. In addition, the EC50 in assay [2] came to 28 µM.

For the compound `Cc1ccc(C(C)CC#N)c(Cl)c1` (racemic), the Activity in assay [1] amounted to 600%. Moreover, in assay [2], the EC50 came out at 38 µM.

Regarding `Cl/C(=C\n1cncn1)c1ccc(Cl)cc1Cl` [LORECLEZOLE], the Activity in assay [1] is 600%. For the same compound, the half-maximal effective concentration (EC50) in assay [2] came out at 38 µM.
